From publication PMC10994559 (PLOS Neglected Tropical Diseases, 2024)

Legend:
[1] = system: human hepatocyte carcinoma HepG2 cells; test: Cytotoxicity assay HepG2, resazurin reduction; assay type: cell-based
Procedure: Mammalian cell lines (J774 and HepG2) were passaged in RPMI media supplemented with MEM, Pen-Strep (1%) and 10% FCS. Cultures were kept at 37°C incubator with 5% CO2 in filter-cap flasks.
Murine macrophage cells (J774) and human hepatocyte carcinoma HepG2 cells were seeded at 0.5x10^5 cell/well in 384 well plates in triplicate, exposed to serial dilution of compounds, dispensed using an Echo 650 acoustic dispenser (Labcyte). After incubation for 72 h at 37°C, 5% CO2, cell viability was determined using fluorescence resazurin reduction assay (λEx: 550 nm; λEm: 590 nm).

[2] = system: T. brucei BSF; test: Cell cycle (nuclei/kinetoplast count, DAPI) after PHT-39 treatment; assay type: cell-based, Trypanosoma brucei; details: 1 x EC50, 24 h
Procedure: 10^6 cells were harvested by centrifugation (1000*g) after 24 h from cultures in logarithmic growth phase and washed once with serum-free HMI-9. After fixation in 2% formaldehyde cell were applied to a glass slide and mounted with Vectashield Antifade mounting medium with 4′,6-diamidino2-phenylindole (DAPI) for fluorescence microscopy imaging on a Leica TCS SP8 WLL SMD-FLIM inverted confocal microscope. The number of nuclei (N) and kinetoplasts (K) per cell were then counted for 100 cells in each respective replicate (n = 3), allowing determination of cell cycle stage.

[3] = system: T. brucei brucei BSF; test: T. brucei BSF viability, resazurin reduction; assay type: cell-based, Trypanosoma brucei brucei; details: Trypanosoma brucei
[4] = system: E. histolytica; test: E. histolytica viability, ATP luminescence (Cell titer glo); assay type: cell-based, Entamoeba histolytica; details: Entamoeba histolytica, 48 h
Summary of the method: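 E. histolytica strain B2-5 at 2.5x10^4 cells/ml was exposed to compound for 48 h at 37 °C under anaerobic conditions, with viability read as ATP luminescence (CellTiter-Glo). The primary screen used 25 μM in triplicate, and follow-up potency runs used 9–16-point ranges spanning 0.01–100 μM.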

Question: What does the source list for `CC[C@@H](C)[C@H](c1nc2ccccc2n1Cc1cn(-c2ccc(C(F)(F)F)cc2)nn1)N1C(=O)c2ccccc2C1=O` [PHT-39]?
Answer: Selectivity ([1]; HepG2 cytotoxicity vs intramacrophage L. infantum): over 90 fold; EC50 ([1]; Homo sapiens, HepG2, 72 h, cytotoxicity, 72 h, read-out: EC50 (CT50) HepG2): > 100 µM; Proportion of 2K1N cells, decreased to [2]: approximately 57%; Proportion of 2K2N cells, decreased to [2]: approximately 28%; viability at 2.5 µM ([3]; 72 h, read-out: Residual viability, T.brucei (2.5 µM), BSF, 2.5 µM, 72 h): 64.9 ± 7.25%; viability at 25 µM ([3]; 72 h, read-out: Residual viability, T.brucei (25 µM), BSF, 25 µM, 72 h): 2.85 ± 2.88%; EC50 ([3]; read-out: EC50 T. brucei BSF, dose response, triplicate, ± SD (Table 2) / ± SE (S3 Table)): 3.9 ± 1.7 µM; viability at 2.5 µM ([4]; read-out: Residual viability, E.histolytica (2.5 µM)): 81.6 ± 12.6%; viability at 25 µM ([4]; read-out: Residual viability, E.histolytica (25 µM)): 44.5 ± 9.9%
